Here are results for 1 compound from PMC7486443, “Generation of Phenothiazine with Potent Anti-TLK1 Activity for Prostate Cancer Therapy” (iScience, 2020).

Some targets named below: DAPK2 (Homo sapiens, UniProt Q9UIK4); FGFR2 (Homo sapiens, UniProt P21802); FLT3(K663Q) (Homo sapiens, UniProt P36888, K663Q); MET(M1250T) (Homo sapiens, UniProt P08581, M1250T); MYO3B (Homo sapiens, UniProt Q8WXR4); PLK1 (Homo sapiens, UniProt P53350); SRMS (Homo sapiens, UniProt Q9H3Y6); TNNI3K (Homo sapiens, UniProt Q59H18); ULK1 (Homo sapiens, UniProt O75385); ULK3 (Homo sapiens, UniProt Q6PHR2).

Common to all, as to assay: biochemical
What all share (parameters): DiscoverX KINOMEscan scanMAX competition binding panel, single concentration, percent of control; remaining binding: dose or concentration left out as unconfirmed
Holding throughout (conditions): KINOMEscan binding, percent of control; read-out: Table S4_SCANMAX REPORT - related to Fig. 1 / Percent Control

The next assay concerns the target T1, DCAMKL1 (Homo sapiens, UniProt O15075).
T1 construct: gene DCLK1

Another assay addresses T2, DRAK1 (Homo sapiens, UniProt Q9UEE5).
T2 construct: gene STK17A

For a further assay, the target named is T3, ICK (Homo sapiens, UniProt Q9UPZ9).
T3 construct: gene CILK1

The target of another assay is T4, MEK5 (Homo sapiens, UniProt Q13163).
T4 construct: gene MAP2K5

The target in the next assay is T5, PAK7 (Homo sapiens, UniProt Q9P286).
T5 construct: gene PAK5

Another assay deals with T6, PFTK1 (Homo sapiens, UniProt O94921).
T6 construct: gene CDK14

Assay [1] has as its target T7, RSK4(Kin.Dom.1-N-terminal) (Homo sapiens, UniProt Q9UK32).
T7 construct: gene RPS6KA6; Kin.Dom.1-N-terminal

Another assay deals with T8, SIK (Homo sapiens, UniProt P57059).
T8 construct: gene SIK1

DAPK2, sequence (Q9UIK4 whole entry): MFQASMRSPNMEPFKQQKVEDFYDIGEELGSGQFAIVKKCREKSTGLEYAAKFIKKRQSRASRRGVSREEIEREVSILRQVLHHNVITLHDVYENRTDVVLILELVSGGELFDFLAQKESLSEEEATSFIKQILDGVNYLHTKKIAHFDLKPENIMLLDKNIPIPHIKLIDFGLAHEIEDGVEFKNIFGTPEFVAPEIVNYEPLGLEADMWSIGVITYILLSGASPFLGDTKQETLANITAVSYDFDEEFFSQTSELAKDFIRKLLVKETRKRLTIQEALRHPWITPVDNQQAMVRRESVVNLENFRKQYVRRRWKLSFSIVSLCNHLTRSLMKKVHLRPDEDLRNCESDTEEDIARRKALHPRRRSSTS
FGFR2, sequence (P21802 whole entry): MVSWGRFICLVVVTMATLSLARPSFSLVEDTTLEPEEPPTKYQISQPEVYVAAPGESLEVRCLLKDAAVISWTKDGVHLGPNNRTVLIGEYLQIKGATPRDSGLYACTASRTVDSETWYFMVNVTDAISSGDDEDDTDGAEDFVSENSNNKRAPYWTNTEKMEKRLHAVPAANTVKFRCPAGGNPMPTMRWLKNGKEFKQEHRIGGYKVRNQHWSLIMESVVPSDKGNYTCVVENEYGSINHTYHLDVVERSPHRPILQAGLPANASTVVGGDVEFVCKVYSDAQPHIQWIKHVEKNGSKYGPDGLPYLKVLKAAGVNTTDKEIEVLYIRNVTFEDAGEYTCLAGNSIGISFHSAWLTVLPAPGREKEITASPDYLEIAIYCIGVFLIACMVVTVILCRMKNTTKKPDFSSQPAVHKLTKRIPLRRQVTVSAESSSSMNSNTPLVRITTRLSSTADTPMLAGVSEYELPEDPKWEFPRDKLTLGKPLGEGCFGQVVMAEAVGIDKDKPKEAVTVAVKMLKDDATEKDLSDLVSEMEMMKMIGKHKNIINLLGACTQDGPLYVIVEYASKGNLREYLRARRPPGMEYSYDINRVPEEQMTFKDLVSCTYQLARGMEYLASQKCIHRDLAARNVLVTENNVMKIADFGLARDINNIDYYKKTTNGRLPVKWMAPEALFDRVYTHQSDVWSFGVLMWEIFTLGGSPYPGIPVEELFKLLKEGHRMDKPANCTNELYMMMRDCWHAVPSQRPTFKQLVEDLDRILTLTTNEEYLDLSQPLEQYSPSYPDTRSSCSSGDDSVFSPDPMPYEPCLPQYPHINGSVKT
MET(M1250T), sequence (P08581 whole entry M1250T): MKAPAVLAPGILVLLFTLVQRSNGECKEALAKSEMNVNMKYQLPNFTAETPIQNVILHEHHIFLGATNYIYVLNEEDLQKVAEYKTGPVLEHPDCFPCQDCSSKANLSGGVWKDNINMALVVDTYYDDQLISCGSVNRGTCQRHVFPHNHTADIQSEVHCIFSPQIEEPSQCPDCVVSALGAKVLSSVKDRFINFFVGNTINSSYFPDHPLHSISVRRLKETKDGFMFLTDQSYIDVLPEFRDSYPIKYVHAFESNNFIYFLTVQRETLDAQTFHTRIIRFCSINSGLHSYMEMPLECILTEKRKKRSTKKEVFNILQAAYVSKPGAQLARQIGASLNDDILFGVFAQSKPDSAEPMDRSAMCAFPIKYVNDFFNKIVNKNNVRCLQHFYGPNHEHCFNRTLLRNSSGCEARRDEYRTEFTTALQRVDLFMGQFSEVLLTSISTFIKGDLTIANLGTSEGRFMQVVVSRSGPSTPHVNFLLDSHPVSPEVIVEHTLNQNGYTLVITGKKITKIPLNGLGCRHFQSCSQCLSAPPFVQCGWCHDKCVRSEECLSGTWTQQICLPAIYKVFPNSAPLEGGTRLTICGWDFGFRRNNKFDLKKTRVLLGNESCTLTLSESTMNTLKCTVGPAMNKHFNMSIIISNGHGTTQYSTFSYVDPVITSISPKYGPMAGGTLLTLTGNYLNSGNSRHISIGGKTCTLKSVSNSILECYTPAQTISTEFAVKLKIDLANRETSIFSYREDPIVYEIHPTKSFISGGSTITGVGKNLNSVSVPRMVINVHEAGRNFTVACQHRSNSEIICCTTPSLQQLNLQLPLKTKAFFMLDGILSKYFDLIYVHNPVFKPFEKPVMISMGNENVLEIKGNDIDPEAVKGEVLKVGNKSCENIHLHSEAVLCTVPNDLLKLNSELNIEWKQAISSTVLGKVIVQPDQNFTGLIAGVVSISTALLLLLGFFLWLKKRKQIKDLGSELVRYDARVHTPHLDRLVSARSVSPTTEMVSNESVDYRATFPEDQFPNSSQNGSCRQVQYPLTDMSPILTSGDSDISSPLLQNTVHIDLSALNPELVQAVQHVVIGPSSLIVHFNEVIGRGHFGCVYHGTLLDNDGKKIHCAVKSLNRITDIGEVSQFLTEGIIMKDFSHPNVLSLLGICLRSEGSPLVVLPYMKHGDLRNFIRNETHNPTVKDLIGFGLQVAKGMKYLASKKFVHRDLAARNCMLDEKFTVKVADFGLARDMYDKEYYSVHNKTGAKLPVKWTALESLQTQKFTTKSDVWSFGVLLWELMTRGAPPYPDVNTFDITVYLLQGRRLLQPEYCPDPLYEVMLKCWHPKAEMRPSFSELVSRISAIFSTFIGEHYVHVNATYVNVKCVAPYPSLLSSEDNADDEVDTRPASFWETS
ULK1, sequence (O75385 whole entry): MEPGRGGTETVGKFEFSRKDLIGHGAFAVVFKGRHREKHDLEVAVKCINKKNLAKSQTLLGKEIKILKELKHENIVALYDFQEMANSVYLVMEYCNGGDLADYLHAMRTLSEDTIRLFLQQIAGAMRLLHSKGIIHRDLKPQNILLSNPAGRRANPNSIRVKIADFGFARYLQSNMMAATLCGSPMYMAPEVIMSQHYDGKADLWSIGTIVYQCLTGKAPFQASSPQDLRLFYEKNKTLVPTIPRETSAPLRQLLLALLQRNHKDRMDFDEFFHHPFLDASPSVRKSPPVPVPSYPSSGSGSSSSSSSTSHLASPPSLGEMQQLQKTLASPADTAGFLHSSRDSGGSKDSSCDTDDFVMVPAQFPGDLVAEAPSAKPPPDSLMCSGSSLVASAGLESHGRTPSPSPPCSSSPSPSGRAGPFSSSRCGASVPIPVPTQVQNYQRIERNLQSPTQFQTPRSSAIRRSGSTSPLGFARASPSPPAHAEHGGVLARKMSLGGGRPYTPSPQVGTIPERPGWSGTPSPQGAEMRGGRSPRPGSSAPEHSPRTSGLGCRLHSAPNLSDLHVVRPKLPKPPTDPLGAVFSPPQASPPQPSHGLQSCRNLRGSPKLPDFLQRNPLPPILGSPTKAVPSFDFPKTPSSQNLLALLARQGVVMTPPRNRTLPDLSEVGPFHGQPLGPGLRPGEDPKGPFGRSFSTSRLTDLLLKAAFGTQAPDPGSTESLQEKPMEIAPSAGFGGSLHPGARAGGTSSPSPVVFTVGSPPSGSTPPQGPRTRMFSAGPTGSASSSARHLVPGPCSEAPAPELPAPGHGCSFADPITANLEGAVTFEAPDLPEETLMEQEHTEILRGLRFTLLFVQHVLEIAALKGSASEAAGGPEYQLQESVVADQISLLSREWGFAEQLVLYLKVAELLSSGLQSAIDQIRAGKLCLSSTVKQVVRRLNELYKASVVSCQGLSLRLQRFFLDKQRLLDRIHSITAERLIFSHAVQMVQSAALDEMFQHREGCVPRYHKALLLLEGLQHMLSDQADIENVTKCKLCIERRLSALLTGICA
T4 sequence (Q13163 whole entry): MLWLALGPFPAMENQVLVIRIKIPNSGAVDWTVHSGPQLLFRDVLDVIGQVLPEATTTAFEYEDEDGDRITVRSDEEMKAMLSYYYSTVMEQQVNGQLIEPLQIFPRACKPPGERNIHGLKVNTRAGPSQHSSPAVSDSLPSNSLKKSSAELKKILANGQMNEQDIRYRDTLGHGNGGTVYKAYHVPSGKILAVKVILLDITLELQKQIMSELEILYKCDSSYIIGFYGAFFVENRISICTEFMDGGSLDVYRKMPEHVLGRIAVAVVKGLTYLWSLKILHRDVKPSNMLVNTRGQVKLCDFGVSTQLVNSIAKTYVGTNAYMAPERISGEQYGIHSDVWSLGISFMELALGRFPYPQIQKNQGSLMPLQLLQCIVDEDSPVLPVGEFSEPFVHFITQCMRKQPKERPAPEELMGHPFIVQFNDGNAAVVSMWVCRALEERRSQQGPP
SRMS, sequence (Q9H3Y6 whole entry): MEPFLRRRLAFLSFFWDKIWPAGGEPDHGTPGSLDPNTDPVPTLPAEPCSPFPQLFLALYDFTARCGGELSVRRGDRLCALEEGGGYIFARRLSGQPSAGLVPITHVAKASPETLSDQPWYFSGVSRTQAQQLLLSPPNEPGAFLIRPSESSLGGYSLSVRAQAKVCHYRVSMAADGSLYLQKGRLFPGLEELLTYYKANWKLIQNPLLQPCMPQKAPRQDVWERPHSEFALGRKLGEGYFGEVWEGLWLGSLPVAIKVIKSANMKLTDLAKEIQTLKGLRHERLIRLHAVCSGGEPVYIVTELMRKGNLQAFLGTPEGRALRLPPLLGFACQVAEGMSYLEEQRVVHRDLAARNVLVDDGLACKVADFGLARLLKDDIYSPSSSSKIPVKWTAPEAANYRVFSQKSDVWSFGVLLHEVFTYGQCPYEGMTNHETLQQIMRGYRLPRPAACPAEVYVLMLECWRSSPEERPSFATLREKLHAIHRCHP
T6 sequence (O94921 whole entry): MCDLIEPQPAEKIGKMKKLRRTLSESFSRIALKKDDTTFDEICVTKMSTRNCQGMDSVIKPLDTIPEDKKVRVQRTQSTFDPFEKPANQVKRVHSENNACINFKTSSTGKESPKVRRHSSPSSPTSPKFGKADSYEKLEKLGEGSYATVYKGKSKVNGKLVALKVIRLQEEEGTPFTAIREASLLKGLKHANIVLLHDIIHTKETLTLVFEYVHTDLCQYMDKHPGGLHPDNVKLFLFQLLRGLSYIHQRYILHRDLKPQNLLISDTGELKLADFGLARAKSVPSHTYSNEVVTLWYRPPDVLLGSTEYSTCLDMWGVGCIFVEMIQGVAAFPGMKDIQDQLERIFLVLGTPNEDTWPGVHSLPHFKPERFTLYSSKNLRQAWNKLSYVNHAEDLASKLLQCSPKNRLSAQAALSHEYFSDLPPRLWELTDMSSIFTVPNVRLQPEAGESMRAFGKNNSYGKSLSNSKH

On to `c1ccc2c(c1)Sc1ccccc1N2CCN1CCOCC1` [J54], for which the remaining binding came to 97% on DAPK2; 100% on DCAMKL1; 89% at DRAK1; 100% on FGFR2; 94% on FLT3(K663Q); 100% at ICK. The remaining binding on MEK5 is 95%; at MET(M1250T), 67%; on MYO3B, 100%; on PAK7, 100%; on PFTK1, 100%; on PLK1, 100%. In addition, the remaining binding in [1] was 100%; at SIK it was 91%; at SRMS, 100%; on TNNI3K it was 100%; at ULK1, 99%; on ULK3, 79%.
